In patent US20200390764A1, “PHARMACEUTICAL FORMULATIONS, PROCESSES FOR PREPARATION, AND METHODS OF USE” (Sunesis Pharmaceuticals, Inc., priority 2017, published 2020):
pEC50: −log10 of the molar value. In brackets after ≈: the same amount, converted by molar mass.

How the values were obtained:
[1] = Oral pharmacokinetics in mice; assay type: in vivo; settings: for Tmax / bioavailability: mouse, in vivo; for bioavailability: read-out: oral bioavailability % F
MV4-11 xenografts = experiment: In vivo pathway modulation in MV4-11 xenografts; settings: 4 hours and 24 hours after a single oral dose, MV4-11 xenografts in mice
Description: Pathway modulation was assessed in vivo using MV4-11 xenografts in mice. […] Efficacy was assessed by 21-day dosing in MV4-11 xenografts.

Aqueous solubility = assay type: physicochemical
Excerpt: The present invention provides a process for the preparation of a pharmaceutical composition comprising active compounds as described herein, with improved absorption. […] According to the process of the present invention, it is possible to provide, from an active compound, a formulation in which the dissolution rate and oral bioavailability of the drug are high. Furthermore, the solid dispersion extrudates of the present invention have good stability at room temperature.
To overcome the inherent hurdles posed by this class of drugs, three alternative formulation approaches were screened: lipid-based formulation, nano-suspension, and solid dispersion via hot melt extrusion (HME).

PDK1 = molecular target: T1, PDK1 (Homo sapiens, UniProt O15530); experiment: PDK1 biochemical potency (binding of the inactive conformation); settings: compared to the PDK1 inhibitor GSK2334470
T1 sequence (O15530 1-556): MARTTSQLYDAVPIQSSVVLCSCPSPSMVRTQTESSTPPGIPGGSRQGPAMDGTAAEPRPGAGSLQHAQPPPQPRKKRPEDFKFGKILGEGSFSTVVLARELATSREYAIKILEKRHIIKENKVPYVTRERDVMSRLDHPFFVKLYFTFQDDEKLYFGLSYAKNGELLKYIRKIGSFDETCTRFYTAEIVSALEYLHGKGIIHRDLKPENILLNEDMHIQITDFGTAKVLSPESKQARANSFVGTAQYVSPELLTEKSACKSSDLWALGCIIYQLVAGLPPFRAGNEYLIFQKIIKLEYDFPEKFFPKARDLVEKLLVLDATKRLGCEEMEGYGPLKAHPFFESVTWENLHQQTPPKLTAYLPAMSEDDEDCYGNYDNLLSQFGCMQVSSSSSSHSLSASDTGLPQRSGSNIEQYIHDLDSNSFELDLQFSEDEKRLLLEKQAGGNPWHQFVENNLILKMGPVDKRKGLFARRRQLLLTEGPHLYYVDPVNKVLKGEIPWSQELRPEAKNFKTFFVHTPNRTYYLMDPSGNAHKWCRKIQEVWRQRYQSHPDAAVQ
Excerpt: (§1) The compounds bind deep in the adaptive (allosteric) pocket, causing a distortion in the N-terminal domain thereby perturbing the PIF-pocket and thus negatively modulating PI-independent substrate binding. […] Anti-proliferative activity correlated with pathway modulation assessed by inhibition of phosphorylation of PDK1, RSK2, and AKT.

[2] = system: cell lines derived from hematologic cancers; experiment: Anti-proliferative activity in a panel of hematologic cancer cell lines; assay type: cell-based; settings: panel of more than 20 cell lines: AML, multiple myeloma, DLBCL, Mantle cell lymphoma
Excerpt: as §1

[3] = system: phosphorylation of PDK1, RSK2, and AKT; experiment: Pathway modulation in cells: inhibition of phosphorylation; assay type: cell-based
Excerpt: as §1

[4] = system: cell lines derived from hematologic cancers; experiment: Apoptosis induction in cancer cell lines; assay type: cell-based; settings: after 24 hours
Excerpt: as §1

[5] = system: cell lines derived from hematologic cancers; experiment: 72-hour viability assays; assay type: cell-based
Excerpt: as §1

| half-life [1] | Tmax [1] | bioavailability [1] | solubility (Aqueous solubility; aqueous buffer, over the physiological pH range) | solubility (Aqueous solubility; aqueous medium (not specified further)) | biochemical potency compared to GSK2334470 (PDK1) | pEC50 [2] | Structure (SMILES) | pathway modulation in vivo (MV4-11 xenografts) | inhibition of PDK1 phosphorylation, fold more after 24 hours than 4 hours ([3]; 24 hours vs 4 hours) | fold more potent than GSK2334470 at inhibiting PDK1 and RSK2 phosphorylation ([3]; all cell lines tested) | apoptosis [4] | fold more potent than GSK2334470 in viability assays [5] |
| --- | --- | --- | --- | --- | --- | --- | --- | --- | --- | --- | --- | --- |
| long half-life | 4 to 8 h | > 40% | < 0.1 µg/mL | 0.1 µg/mL (≈ 0.19 µM) | – | – | C[C@H](NC(=O)c1nc(C#N)cnc1NCc1ccc(-c2cnc3[nH]nc(N)c3n2)cc1)c1ccc(F)c(F)c1 (stereo in doubt) [Compound 1, 3-[4-(3-Amino-1H-pyrazolo[3,4-b]pyrazin-5-yl)-benzylamino]-6-cyano-pyrazine-2-carboxylic acid [1-(3,4-difluoro-phenyl)-ethyl]-amide] | Potent pathway modulation | – | – | – | – |
| long half-life | 4 to 8 h | > 40% | – | – | comparable biochemical potency | 6.05 to 8.52 | CNc1n[nH]c2ncc(-c3ccc(CNc4ncc(C#N)nc4C(=O)N[C@@H](C)c4ccc(F)c(F)c4)cc3)cc12 [Compound 2, 6-Cyano-3-[4-(3-methylamino-1H-pyrazolo[3,4-b]pyridin-5-yl)-benzylamino]-pyrazine-2-carboxylic acid [1-(3,4-difluoro-phenyl)-ethyl]-amide] | Potent pathway modulation | 2-5 fold | 10- to 30 fold | substantial apoptosis | at least 10 fold |
